Reference: patent publication US11753433B2, “Methods of synthesizing substituted purine compounds” (Epizyme, Inc., priority 2013, dated 2023)

Tests used:
Assay type in all cases: physicochemical
[1] = Dynamic vapor sorption (DVS) hygroscopicity; settings: between 0% and 95% RH, 25° C.
Experimental: (peak temperature) which is accompanied by 5.9 wt % weight loss up to ˜150° C. in the TGA curve (FIG. 3). […] A solid is considered moderately hygroscopic when water uptake at 25° C./80% RH is between 2-15 wt % based on criteria of European Pharmacopeia. […] Form B of EP-1 trihydrate (x is 3) is a trihydrate as confirmed by single crystal analysis. The experimental XRPD pattern of Form B matches well with the simulated one from single crystal data (FIG. 6). This was also confirmed by DSC and TGA data (FIG. 7 and FIG. 8, respectively). DSC data indicates Form B dehydrates at ˜132° C. […] Form B is slightly hygroscopic as evidenced by a weight change of ˜0.3% between 0% and 95% RH (FIG. 9), (data collection was programmed from 95% RH-0% RH-95% RH at a step size of 10% RH at 25° C.).

[2] = Slurry experiments using Form A and Form B (relative stability)
Experimental: The relative stability between Form A and Form B was investigated by slurry experiments in ACN (containing less than 0.3 wt % water), ACN/H2O (v/v, 3; 1), and H2O at room temperature and 50° C. In general, about 10-30 mg Form A was added to a 5-ml glass vial with 0.5 ml corresponding solvents to get suspensions at room temperature and 50° C., respectively. Then 10-30 mg Form B was added to the suspensions which were kept stirring for 24 h. The water activity was calculated using the UNIFAC model.

[3] = Equilibrium solubility in aqueous media; settings: for solubility at 24 h: 25 °C, thermodynamic from solid; for Remaining Solid: XRPD
Experimental: Approximately 10 mg of Form B was weighed into a 1-ml glass vial followed by addition of 0.5 ml relevant media. Each sample was continuously stirred using a magnetic stir bar at 25° C. for 24 h. The suspension was then filtered using a nylon membrane with a pore diameter of 0.22 μm. The filtrates were diluted for HPLC analysis and final pH was measured. The solid residue of each sample was collected for XRPD analysis.
The solubilities of Form B in water and five different pH values at 25° C. were determined by HPLC after 24 h equilibration. Solubility data for Form B was obtained across the physiological pH by using buffer solutions from pH 2 to pH 10.
Preparation of pH Buffers • pH 2: 0.01N HCl solution. Dilute 1 ml of 1 N HCl with H2O up to a total volume of 100 ml. Measure the pH and precisely adjust to pH=2.00 using a few microliters of 1N HCl or 1N NaOH. • pH 4: 50 mM Na citrate buffer. Prepare a 50 mM citric acid solution by diluting 10 ml of 1N citric acid with H2O up to a total volume of 200 ml. Slowly add solid NaOH under stirring to increase the pH to 3.8-4.0 and use a few microliters of 1N NaOH for final adjustment to pH 4.00. • pH 6: 50 mM Na citrate buffer. Use the same procedure as the pH 4 buffer and adjust to pH=6.00 • pH 8: 50 mM Na phosphate buffer. Prepare a 50 mM NaH2PO4 solution by dissolving 6.00 g NaH2PO4 in 1 L of H2O and a 50 mM Na2HPO4 solution by dissolving 7.10 g in 1 L of H2O. Mix 10 ml of the NaH2PO4 solution with 140 ml of the Na2HPO4 solution in a beaker. Adjust to pH 8.00 by addition of small amounts of 50 mM NaH2PO4 or Na2HPO4 solution. • pH 10: 50 mM Na carbonate buffer. Prepare a 50 mM carbonate solution by dissolving 840 mg of sodium bicarbonate (NaHCO3) in about 180 ml of H2O. Slowly adjust the pH to 10.0±0.1 by addition of 1N NaOH. Add water to reach the total volume of 200 ml and adjust to pH 10.00 with 1N NaOH.

Solution photostability = test: Solution photostability
Experimental: Solution Photostability: Weighed ˜1 mg of Form B and dissolved in 3 solutions at different pHs (0.01 N HCl, 0.01 N NaOH and water). Methanol was added as a co-solvent to dissolve Form B in solutions (i.e., 10% (v/v) methanol in 0.01 N HCl, 20% (v/v) in water and 30% (v/v) in 0.01 N NaOH), the final concentration was 0.1 mg/mL. For each solution, 1 sample and 1 control covered in foil were put into the photo chamber for Vis study (2 vials total for each solution). Measure the concentration and monitor the degradation.

[4] = 0.01N HCl, pH (initial) 2.0, RT, 24 h
[5] = 50 mM Na carbonate buffer, pH (initial) 10.0, RT, 24 h
[6] = 50 mM Na phosphate buffer, pH (initial) 8.0, RT, 24 h
[7] = 50 mM sodium citrate, pH (initial) 4.0, RT, 24 h
[8] = 50 mM sodium citrate, pH (initial) 6.0, RT, 24 h
[9] = 0.01N HCl Dark, Vis Stability (1.2 Mil lux-hours)
[10] = 0.01N HCl Dark, Vis-UV Stability (1.2 Mil lux-hours + 200 Watt-hours/m^2)
[11] = 0.01N HCl Light, Vis Stability (1.2 Mil lux-hours)
[12] = 0.01N HCl Light, Vis-UV Stability (1.2 Mil lux-hours + 200 Watt-hours/m^2)
[13] = 0.01N NaOH Dark, Vis Stability (1.2 Mil lux-hours)
[14] = 0.01N NaOH Dark, Vis-UV Stability (1.2 Mil lux-hours + 200 Watt-hours/m^2)
[15] = 0.01N NaOH Light, Vis Stability (1.2 Mil lux-hours), precipitation observed
[16] = 0.01N NaOH Light, Vis-UV Stability (1.2 Mil lux-hours + 200 Watt-hours/m^2), precipitation observed
[17] = H2O Dark, Vis Stability (1.2 Mil lux-hours)
[18] = H2O Dark, Vis-UV Stability (1.2 Mil lux-hours + 200 Watt-hours/m^2)
[19] = H2O Light, Vis Stability (1.2 Mil lux-hours)
[20] = H2O Light, Vis-UV Stability (1.2 Mil lux-hours + 200 Watt-hours/m^2)

weight change (DVS) [1]: ~0.3% | water activity at which Form B is thermodynamically more stable than Form A ([2]; 50° C.): ≥ 0.08 | water activity at which Form B is thermodynamically more stable than Form A ([2]; RT): ≥ 0.09 | solubility at 24 h ([3]; 0.01N HCl solution, pH 2, simulated gastric fluid, 0.01N HCl, pH (initial) 2.0, RT, 24 h): 3400 µg/mL | pH (final) [3, 4]: 5.5 | Remaining Solid [3, 4]: Form B | pH (final) [3, 5]: 10.0 | Remaining Solid [3, 5]: Form B | Solubility ([3]; 50 mM Na carbonate buffer, pH (initial) 10.0, RT, 24 h, LOD 0.1 μg/ml): <LOD^ | pH (final) [3, 6]: 8.0 | Remaining Solid [3, 6]: Form B | Solubility ([3]; 50 mM Na phosphate buffer, pH (initial) 8.0, RT, 24 h, LOD 0.1 μg/ml): <LOD^§ | solubility at 24 h ([3]; 50 mM sodium citrate buffer, pH 4, aqueous buffer, 50 mM sodium citrate, pH (initial) 4.0, RT, 24 h): 9800 µg/mL | solubility at 24 h ([3]; 50 mM sodium citrate buffer, pH 6, aqueous buffer, 50 mM sodium citrate, pH (initial) 6.0, RT, 24 h): 80 µg/mL | pH (final) [3, 7]: 5.4 | Remaining Solid [3, 7]: Form B | Solubility ([3]; 50 mM sodium citrate, pH (initial) 4.0, RT, 24 h, trihydrate): 9700 µg/mL | pH (final) [3, 8]: 6.0 | Remaining Solid [3, 8]: Form B | pH (final) ([3]; Water (unbuffered), RT, 24 h): 5.6 | Remaining Solid ([3]; Water (unbuffered), RT, 24 h): Form B | solubility at 24 h ([3]; unbuffered water, water, RT): 1.2 µg/mL | solubility at 24 h ([3]; unbuffered water, water, Water (unbuffered), RT, 24 h): 1.2 µg/mL | % area (Solution photostability; [9]): 99.4% | % claim (Solution photostability; [9]): 100.0% | Final pH (Solution photostability; [9]): 2.1 | % area (Solution photostability; [10]): 99.9% | % claim (Solution photostability; [10]): 100.0% | Final pH (Solution photostability; [10]): 2.1 | % area (Solution photostability; [11]): 98.5% | % claim (Solution photostability; [11]): 98.8% | Final pH (Solution photostability; [11]): 2.1 | % area (Solution photostability; [12]): 99.9% | % claim (Solution photostability; [12]): 99.9% | Final pH (Solution photostability; [12]): 2.1 | % area (Solution photostability; [13]): 99.7% | % claim (Solution photostability; [13]): 100.0% | Final pH (Solution photostability; [13]): 11.6 | % area (Solution photostability; [14]): 100.0% | % claim (Solution photostability; [14]): 100.0% | Final pH (Solution photostability; [14]): 11.7 | Final pH (Solution photostability; 0.01N NaOH Light, Vis Stability (1.2 Mil lux-hours)): 11.7 | % area (Solution photostability; [15]): 99.6% | % claim (Solution photostability; [15]): 44.5% | Final pH (Solution photostability; 0.01N NaOH Light, Vis-UV Stability (1.2 Mil lux-hours + 200 Watt-hours/m^2)): 11.7 | % area (Solution photostability; [16]): 99.3% | % claim (Solution photostability; [16]): 66.3% | % area (Solution photostability; [17]): 100.0% | % claim (Solution photostability; [17]): 100.0% | Final pH (Solution photostability; [17]): 7.7 | % area (Solution photostability; [18]): 100.0% | % claim (Solution photostability; [18]): 100.0% | Final pH (Solution photostability; [18]): 8.1 | % area (Solution photostability; [19]): 99.6% | % claim (Solution photostability; [19]): 98.5% | Final pH (Solution photostability; [19]): 7.3 | % area (Solution photostability; [20]): 99.3% | % claim (Solution photostability; [20]): 94.7% | Final pH (Solution photostability; [20]): 7.3 | observation in solution photostability study (Solution photostability; all solutions in 0.01N NaOH): Precipitation was observed | solution photostability (in words) (Solution photostability; in water and 0.01N HCl solution, UV/Vis exposure): stable upon exposure to UV/Vis
SMILES: CC(C)N(C[C@H]1O[C@@H](n2cnc3c(N)ncnc32)[C@H](O)[C@@H]1O)[C@H]1C[C@@H](CCc2nc3cc(C(C)(C)C)ccc3[nH]2)C1 [Form B, (2R,3R,4S,5R)-2-(6-amino-9H-purin-9-yl)-5-((((1r,3S)-3-(2-(5-(tert-butyl)-1H-benzo[d]imidazol-2-yl)ethyl)cyclobutyl)(isopropyl)amino)methyl)tetrahydrofuran-3,4-diol trihydrate]
